Structures can show the parent of a compound that is named as a salt.
Tests used:
[1] = Arterio-Venous shunt model; assay type: in vivo, rats; conditions: continuous intravenous infusion; for thrombus weight: both compounds to the same extent
Experimental: […]. Blood circulated through the shunt for 15 minutes before the thread is carefully removed and weighed. The weight of a wet thread is subtracted from the total weight of the thread and thrombus (see J.R. Smith, Br. J. Pharmacol., 77,29 (1982)).

[2] = Coagulation parameters in plasma of treated rats (TT, APTT, prothrombin time); assay type: in vivo, rat; conditions: for plasma thrombin time prolonged: during infusion reducing thrombus weight to approximately 20% of control in the Arterio-Venous shunt model
Experimental: Plasma thrombin time (TT) and activated partial thromboplastin time (APTT) are measured with a fibrometer. Blood is sampled from a jugular catheter and collected in syringe containing sodium citrate (3.8%, 1 part to 9 parts blood). To measure TT, rat plasma (0.1 mL) is mixed with saline (0.1 mL) and bovine thrombin (0.1 mL, 30 U/mL in TRIS buffer; Parke Davis) at 37 °C. For APTT, plasma (0.1 mL) and APTT solution (0.1 mL, Organon Teknika) are incubated for 5 minutes (37 °C) and CaCl2 (0.01 mL, 0.025 M) is added to start coagulation. Assays are done in duplicate and averaged.

[3] = target: factor Xa (Homo sapiens, UniProt P00742); experiment: biochemical; conditions: read-out: Kass Xa (converted)
Chain of factor Xa (P00742 235-488 limits assumed): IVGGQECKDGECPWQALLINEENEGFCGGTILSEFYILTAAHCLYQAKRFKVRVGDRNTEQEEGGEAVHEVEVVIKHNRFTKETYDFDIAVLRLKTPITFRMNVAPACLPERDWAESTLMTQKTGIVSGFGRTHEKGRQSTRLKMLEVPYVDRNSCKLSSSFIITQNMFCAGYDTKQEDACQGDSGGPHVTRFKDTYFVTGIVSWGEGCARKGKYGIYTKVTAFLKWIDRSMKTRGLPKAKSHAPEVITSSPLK
Chain of factor Xa (P00742 41-179 partner limits assumed): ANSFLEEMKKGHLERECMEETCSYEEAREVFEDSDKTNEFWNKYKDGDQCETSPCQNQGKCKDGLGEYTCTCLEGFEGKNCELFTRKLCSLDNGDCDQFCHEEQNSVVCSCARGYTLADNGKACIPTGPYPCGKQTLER
How it was run: (§1)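 Bovine trypsin and human factor Xa amidase activity measured chromogenically, following the human thrombin procedure. Substrates: N-Benzoyl-Ile-Glu-Gly-Arg-p-nitroanilide for factor Xa and N-Benzoyl-Phe-Val-Arg-p-nitroanilide for trypsin. Used for selectivity profiling.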

[4] = target: t-PA (Homo sapiens, UniProt P00750); experiment: biochemical; conditions: read-out: Kass t-PA (converted)
Chain of t-PA (P00750 36-562): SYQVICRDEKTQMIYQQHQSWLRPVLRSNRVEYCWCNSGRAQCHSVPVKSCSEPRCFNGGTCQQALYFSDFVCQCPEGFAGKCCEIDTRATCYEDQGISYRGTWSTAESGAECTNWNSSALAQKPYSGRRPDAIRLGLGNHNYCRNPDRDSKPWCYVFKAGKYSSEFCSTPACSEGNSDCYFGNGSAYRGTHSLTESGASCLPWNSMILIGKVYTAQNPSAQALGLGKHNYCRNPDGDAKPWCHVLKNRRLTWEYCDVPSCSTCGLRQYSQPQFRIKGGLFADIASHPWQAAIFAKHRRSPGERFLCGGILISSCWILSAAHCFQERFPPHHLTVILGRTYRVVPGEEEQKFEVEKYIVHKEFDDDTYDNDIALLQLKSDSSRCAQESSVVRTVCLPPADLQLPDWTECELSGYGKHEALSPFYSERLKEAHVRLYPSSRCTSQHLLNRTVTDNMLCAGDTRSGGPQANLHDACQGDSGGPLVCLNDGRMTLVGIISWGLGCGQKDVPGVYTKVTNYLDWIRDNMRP
How it was run: (§2)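 Amidase activity of human plasmin and t-PA (nt-PA single-chain; mt-PA6) was measured by a chromogenic method adapted from a thrombin assay. Substrates were H-D-Val-Leu-Lys-p-nitroanilide for plasmin and H-D-Ile-Pro-Arg-p-nitroanilide for t-PA.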

[5] = target: T1, Plasmin (Homo sapiens, UniProt P00747); experiment: biochemical; conditions: read-out: Kass Plasmin (converted)
T1 construct: Human plasmin is purchased; purchased Boehringer Mannheim, Indianapolis, Indiana
T1 sequence (P00747 581-810 limits assumed): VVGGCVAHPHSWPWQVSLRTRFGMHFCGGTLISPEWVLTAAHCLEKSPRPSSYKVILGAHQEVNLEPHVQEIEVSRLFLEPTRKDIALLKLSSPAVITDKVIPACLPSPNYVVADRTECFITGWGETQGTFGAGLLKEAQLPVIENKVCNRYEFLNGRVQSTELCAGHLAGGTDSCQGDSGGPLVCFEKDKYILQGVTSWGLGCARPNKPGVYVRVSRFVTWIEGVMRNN
T1 sequence (P00747 97-580 partner limits assumed): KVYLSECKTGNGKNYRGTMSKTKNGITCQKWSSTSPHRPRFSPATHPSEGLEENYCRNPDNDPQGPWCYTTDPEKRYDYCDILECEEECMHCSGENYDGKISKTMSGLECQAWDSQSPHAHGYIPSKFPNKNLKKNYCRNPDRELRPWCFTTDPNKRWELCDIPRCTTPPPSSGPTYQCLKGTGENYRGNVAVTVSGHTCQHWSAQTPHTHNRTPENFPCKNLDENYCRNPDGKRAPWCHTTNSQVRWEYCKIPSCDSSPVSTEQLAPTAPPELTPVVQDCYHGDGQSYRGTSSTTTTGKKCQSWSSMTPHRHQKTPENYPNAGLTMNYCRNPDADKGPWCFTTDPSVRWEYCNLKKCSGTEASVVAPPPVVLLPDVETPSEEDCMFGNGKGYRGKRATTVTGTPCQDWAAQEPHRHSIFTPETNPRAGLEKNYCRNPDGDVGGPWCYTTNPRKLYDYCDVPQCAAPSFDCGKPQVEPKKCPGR
How it was run: as §2

[6] = target: Human Thrombin (Homo sapiens, UniProt P00734); experiment: biochemical; conditions: read-out: Kass Human Thrombin (converted)
[7] = tested on: human or animal plasma; experiment: Anticoagulation determination in plasma: thrombin time (TT); assay type: biochemical; conditions: concentration doubling thrombin time
How it was run: (§3)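 Compounds spiked over a concentration range into citrated human, dog or rat plasma. PT used Thromboplastin-C; APTT used Actin reagent 120 s then 0.02 M CaCl2; TT used bovine thrombin 10 NIH units/mL. Concentration doubling clotting time estimated by linear extrapolation.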

[8] = target: T2, Trypsin (Bos taurus, UniProt P00760); experiment: biochemical; parameters: species or system Bovine; conditions: read-out: Kass Trypsin (converted)
T2 sequence (P00760 24-246): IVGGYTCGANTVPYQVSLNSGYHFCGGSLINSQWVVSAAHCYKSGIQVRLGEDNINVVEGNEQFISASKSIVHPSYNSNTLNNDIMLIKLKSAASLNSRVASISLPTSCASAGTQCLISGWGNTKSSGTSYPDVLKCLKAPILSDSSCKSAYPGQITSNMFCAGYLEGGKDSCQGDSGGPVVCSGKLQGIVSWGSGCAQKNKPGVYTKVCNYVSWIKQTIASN
How it was run: as §1

[9] = in vivo; parameters: species or system rats; conditions: for bioavailability: plasma, rat, oral vs i.v.; for % oral/i.v. activity (Rat): screening not completed, activity after p.o. dose given in the legend
Description: Each sample population represented alternating sequential time points.

[10] = tested on: human or animal plasma; experiment: Anticoagulation determination in plasma: prothrombin time (PT); assay type: biochemical; conditions: concentration doubling prothrombin time
How it was run: as §3

[11] = tested on: human or animal plasma; experiment: Anticoagulation determination in plasma: activated partial thromboplastin time (APTT); assay type: biochemical; conditions: concentration doubling activated partial thromboplastin time
How it was run: as §3

[12] = during infusion in the Arterio-Venous shunt model
Wherever % oral/i.v. activity (Rat) is given: key: NC^1 indicates screening not completed; low or very low activity obsrved at 20 mg/kg p.o; NC^2 indicates screening not completed; low or very low activity observed at 60 mg/kg p.o; NC^3 indicates screening not completed; low or very low activity observed at 50 mg/kg p.o.

Structure (SMILES)	thrombus weight [1]	plasma thrombin time prolonged [2]	Kd [3] [nM]	Kd [4] [nM]	Kd [5] [nM]	Kd [6] [nM]	Human Plasma Anticoagulation 2x Clotting time (ng/mL) TT [7] [ng/mL]	Kd [8] [nM]	bioavailability [9] [%]	Human Plasma Anticoagulation 2x Clotting time (ng/mL) PT [10] [ng/mL]	Human Plasma Anticoagulation 2x Clotting time (ng/mL) APTT [11] [ng/mL]	% oral/i.v. activity (Rat) [9]	antithrombotic potency compared with D-MePhe-Pro-Arg-H ([1]; greater than D-MePhe-Pro-Arg-H) [fold]	APTT extended [2, 12]	Prothrombin time extended [2, 12]
CN[C@H](Cc1ccccc1)C(=O)N1CCC[C@H]1C(=O)N[C@H](C=O)CCCNC(=N)N [D-MePhe-Pro-Arg-H, reference compound]	approximately 20 % of control	greater than 20 fold	–	–	–	–	–	–	–	–	–	–	–	–	–
CCS(=O)(=O)N[C@H](Cc1ccccc1)C(=O)N1CCC[C@H]1C(=O)NCCCCNC(=N)N [Example 1, EtS02-D-Phe-Pro-Agm·HCl]	–	–	588000	12200	100000	303	250	2630	8	–	–	–	–	–	–
N=C(N)c1ccc(CNC(=O)[C@@H]2C[C@@H]3CCCC[C@@H]3N2C(=O)[C@H]2CCCCN2)cc1 [Example 20, D-hPro-Ohi-p-NHCH2C6H4C(NH)NH2·3HCl]	–	–	10000	130000	10000	100	62	52.6	23	600	550	–	–	–	–
CCS(=O)(=O)N[C@H](Cc1ccccc1)C(=O)N1CCC[C@H]1C(=O)NCCc1ccc(C(=N)N)cc1 [Example 26, EtSO2-D-Phe-Pro-p-NHCH2CH2-C6H4C(=NH)NH2·HCl]	–	–	100000	100000	100000	76.9	37	4760	–	750	870	NC^1	–	–	–
N=C(N)c1ccc(CNC(=O)[C@@H]2C[C@@H]3CCCC[C@@H]3N2C(=O)[C@@H]2NCC[C@@H]3CCCC[C@@H]32)cc1 [Example 42, D-1-Piq-cis-Ohi-p-NHCH2C6H4C(NH)NH2·2HCl]	–	–	14300	100000	8330	26.3	20	23.3	–	320	270	NC^2	–	–	–
CCS(=O)(=O)N[C@H](Cc1ccccc1)C(=O)N1[C@H](C(=O)NCc2ccc(C(=N)N)cc2)C[C@@H]2CCCC[C@@H]21 [Example 45, EtSO2-Phe-cis-Ohi-p-NHCH2C6H4C(NH)NH2·HCl]	–	–	667	1300	909	1.64	8	9.09	–	330	200	NC^2	–	–	–
N=C(N)c1ccc(CNC(=O)[C@@H]2C[C@@H]3CCCC[C@@H]3N2C(=O)[C@@H](Cc2ccccc2)NCC(=O)O)cc1 [Example 47, HOOCCH2-D-Phe-cis-Ohi-p-NHCH2C6H4C(NH)NH2·HCl]	–	–	25000	100000	5560	22.2	12.	12.2	–	270	140	NC^2	–	–	–
N=C(N)c1ccc(CNC(=O)[C@@H]2CCCN2C(=O)[C@@H](CC2CCCCC2)NCC(=O)O)cc1 [Example 48, HOOCCH2-D-Cha-Pro-p-NHCH2C6H4C(NH)NH2·HCl]	approximately 20 % of control	about 3 fold	182	20000	2330	0.244	2.	4	–	59	33	–	9	about 120 % of control	about 120 % of control
